From PMC7290497, “Tubulin Resists Degradation by Cereblon-Recruiting PROTACs” (Cells, 2020) come the findings set out here.

As usually defined, the pIC50 is the negative decadic logarithm of the IC50, by convention in mol/L.

One data set concerns the target T1, CRBN (Homo sapiens, UniProt Q96SW2).
T1 construct: Quantitative assessment of intracellular CRBN engagement; endogenous in cells; host or cells: Flp293T-based BRD4BD2-GFP mCherry reporter cell line
Put plainly: Competitive displacement assay for cellular CRBN engagement (rescue of dBET6-mediated BRD4BD2-eGFP degradation, mCherry reporter cells). Format: cell-based. Here is the method:
(§1) The human telomerase reverse transcriptase immortalized retinal pigment epithelium 1 (hTert-RPE1) cell line used in this study was grown at 37 °C with 5% CO2 in a humidified incubator. Cells were grown in Dulbecco’s modified medium (nutrient mixture F12, DMEM/F12) supplemented with 10% fetal bovine serum, and 1% (v:v) penicillin/streptomycin (pen/strep). The Flp293T-based BRD4BD2-GFP mCherry reporter cell line was grown in DMEM supplemented with 10% FBS. The synthesized small molecules and the parental microtubule poisons were dissolved in DMSO; 0.01% DMSO was used as vehicle control.
Supplementary Figure S3. MMAE-CRBN compounds engage CRBN in cells. Quantitative assess-ment of intracellular CRBN engagement using a BRD4BRD2-eGFP-mCherry reporter assay. CRBN engagement was assessed by monitoring rescue of dBET6-mediated degradation of BRD4BRD2-eGFP.
Cells stably expressing BRD4BRD2-eGFP and mCherry were treated with 100 nM of dBET6, a specific degrader of BRD4BRD2, and increasing concentrations of the candidate tubulin degraders. The eGFP and mCherry signals were quantified by laser scanning cytometry and the concentration of compound that rescued 50% of BRD4BRD2-eGFP fluorescence (EC50) was determined by nonlinear regression. Data from n=2 biological replicates. Error bars represent standard deviation of the mean. CPD – compound with […]
(also on this page, place not known: BRD4 BRD2-eGFP-mCherry (BJG-02-095)1 100Relative abundance 100Relative abundance 100Relative abundance) […]
Supplementary Figure S6. CA4-CRBN compounds engage CRBN in cells. Quantitative assessment of intracellular CRBN engagement using a BRD4BRD2-eGFP-mCherry reporter assay. CRBN engage-ment was assessed by monitoring rescue of dBET6-mediated degradation of BRD4BRD2-eGFP. Cells stably expressing BRD4BRD2-eGFP and mCherry were treated with 100 nM of dBET6, a specific degrad-er of BRD4BRD2, and increasing concentrations of the candidate tubulin degraders. The eGFP and […]
(also on this page, place not known: BRD4 BRD2-eGFP. (BJG-02-158)10 Relative abundance 100Relativeabundance) […]
3. Competitive displacement assay for cellular CRBN engagement
Cells stably expressing the BRD4BD2-GFP with mCherry reporter were seeded at 30-50% confluency in 384-well plates with 50 µL FluoroBrite DMEM media (Thermo Fisher Scientific A18967) containing 10% FBS per well a day before compound treatment. Compounds and 100 nM dBET6 were dispensed using a D300e Digital Dispenser (HP), normalized to 0.5% DMSO, and incubated with cells for 5 hours. The assay plate was imaged immediately using an Acumen High Content Imager (TTP Labtech) with 488 nm and 561 nm lasers in 2 µm x 1 µm grid per well format. The resulting images were analyzed using CellProfiler.
A series of image analysis steps (‘image analysis pipeline’) was constructed. First, the red and green channels were aligned and cropped to target the middle of each well (to avoid analysis of heavily clumped cells at the edges), and a background illumination function was calculated for both red and green channels of each well individually and subtracted to correct for illumination variations across the 384-well plate from various sources of error. An additional step was then applied to the green channel to suppress the analysis of large auto fluorescent artifacts and enhance the analysis of cell specific fluorescence by way of selecting for objects under a given size, 30 A.U., and with a given shape, speckles. mCherry-positive cells were then identified in the red channel filtering for objects between 8-60 pixels in diameter and using intensity to distinguish between clumped objects. The green channel was then segmented into GFP positive and negative areas and objects were labeled as GFP positive if at least 40% of it overlapped with a GFP positive area. The fraction of GFP-positive cells/mCherry-positive cells in each well was then calculated, and the green and red images were rescaled for visualization. The values for the concentrations that lead to a 50% […]

Data set [1] deals with α-tubulin (TUBA) and β-tubulin (TUBB) in hTert-RPE1 cells. Put plainly: Western blot of tubulin protein levels (tubulin degradation) in whole-cell extracts. It is filed as cell-based, human. To be noted: for tubulin degradation in time-course experiment: five hours, data not shown; for degradation of tubulin (TUBA and TUBB protein levels, Western blot): normalized to ACTB and DMSO. The protocol: as §1
Whole-cell extracts for immunoblot analysis were prepared by cell lysis in 2× SDS sample buffer composed of 50 mM Tris-HCl pH 6.8, 2% SDS, 10% glycerol, 143 mM β-mercaptoethanol, 12.5 mM EDTA, and 0.02% bromophenol blue in water. Samples were denatured at 100 °C for 10 min and then subjected to SDS-PAGE gel electrophoresis on 1.5 mm NuPAGE Novex 4–12% Bis-Tris Protein Gels (Thermo Fisher Scientific, Waltham, MA, USA), using the Mini Trans-Blot Cell system (BioRad, Hercules, CA, USA).
(§2) The Precision Plus Protein Dual Color Standard ladder was used for all immunoblots (BioRad, USA). Primary antibodies were diluted: 1:5000 beta-actin (Cell Signaling Technologies, Danvers, MA, USA, #4970), 1:15000 GAPDH (Cell Signaling Technologies, #2118), 1:10000 alpha-tubulin (DM1alpha, Millipore, Burlington, MA, USA, #05-829), and 1:5000 beta-tubulin (Cell Signaling Technologies, # 2128). Secondary antibodies were diluted: 1:15000 goat anti-mouse DyLight 680 conjugated (Thermo Fisher Scientific, #35518), 1:15000 goat anti-rabbit DyLight 800 conjugated (Thermo Fisher Scientific, #35571). The Odyssey Infra-Red Imaging System (LI-COR, Lincoln, NE, USA) equipped with the Image Studio software was used to image and analyze immunoblots. Data plotting and statistical analysis were carried out in Microsoft Excel (Redmond, WA, USA) and R (Vienna, Austria).
As positive controls, we prepared two of the literature molecules, T007-1 and a related T138067 (Figure 2A). We modified the originally reported synthesis of T007-1, instead using 2-chloro-5-nitrobenzoyl chloride, as the reported dicyclohexyl carbodiimide (DCC) coupling with 2-chloro-5-nitrobenzoic acid led to inseparable mixtures of mono- and diacylation (See Supplementary Material for full details). We treated human retinal pigment epithelium 1 (hTert-RPE1) cells, a widely used cell model, with T007-1 and T138067 degraders at a range of concentrations from 5 nM to 10 μM. Prolonged compound treatment was expected to cause activation of the spindle assembly checkpoint and an arrest in the mitotic stage of the cell cycle, which could have an effect on tubulin levels independently of tubulin degradation. To exclude this possibility, we used contact-inhibited quiescent cells (hTert-RPE1 cells stop proliferating at high growth density). In addition, to minimize the probability that some cells escape the cell cycle arrest and continue to proliferate, we opted for a short 5 h treatment of cells with the compounds, which was previously reported to be sufficient to degrade tubulin [35]. […] Therefore, as previously reported, this series of compounds led to degradation of tubulin and a global decrease of both soluble and polymerized tubulin levels.
On the technique in general: In western blotting, separated proteins are transferred to a membrane and probed.

Data set [2] relates to microtubule cytoskeleton in hTert-RPE1 cells. Put plainly: Biochemical partitioning of tubulin into soluble (S) and polymerized (P) fractions. Format: cell-based, human. To be noted: 1 μM, 5 h. Here is the method:
as §1
For tubulin partitioning into soluble and polymerized fractions, cells were grown in 12-well dishes at 70–80% confluence. Cells were gently washed with PBS pre-warmed to 37 °C. Soluble tubulin was extracted by incubating cells in 300 µL of tubulin extraction buffer containing 60 mM PIPES (pH 6.8), 25 mM HEPES (pH 7.2), 10 mM EGTA (pH 7–8), 2 mM MgCl2, 0.5% TritonX-100, 10 µM Paclitaxel (Sigma Aldrich, St. Louis, MO USA), and a protease inhibitor tablet (Roche, Branchburg, NJ, USA) for 2 min at room temperature. The extraction buffer with soluble protein was collected and mixed with 100 µL 4× SDS sample buffer. The remaining material containing polymerized tubulin was then collected by adding 400 µL 1× SDS sample buffer and scraping the dish. All samples were denatured at 100 °C for 10 min. Equal aliquots of samples were further concentrated two-fold by evaporation at 100 °C for 3–5 min immediately prior to SDS-PAGE gel electrophoresis.
as §2

Where [3] appears, read: IC50, intracellular CRBN engagement (rescue of 50% of BRD4BRD2-eGFP fluorescence), Supplementary Figures S3 and S6, 100 nM dBET6, n=2 biological replicates.
Setting [4] is: hTert-RPE1 cells, 5 nM to 10 μM, 5 h.

pIC50: −log10 of the molar value. Entries after “also recorded” stand apart in the source; their conditions may differ. Where two headings read alike, the source gives them in different places. Square brackets hold non-standard residues; d marks the D form. Peptide text beside a SMILES is read from it. * marks the point of attachment. Dolaproine = CO[C@@H]([C@@H]1CCCN1)[C@@H](C)C(=O)O; X1 = O=C1CCC(N2C(=O)c3cccc(*)c3C2=O)C(=O)N1; Dil = CC[C@H](C)[C@H](NC)[C@@H](CC(=O)O)OC; X2 = C[C@@H](N*)[C@@H](O)c1ccccc1; NMeV = CN[C@H](C(=O)O)C(C)C; 12Ado = NCCCCCCCCCCCC(=O)O

Consider `COc1ccc(/C=C\c2cc(OC)c(OC)c(OC)c2)cc1OCCOCCOCCOCCOCCNc1cccc2c1C(=O)N(C1CCC(=O)NC1=O)C2=O` (stereo not shown) [Compound 11], for which the “cell permeability as judged by the cellular CRBN engagement assay” value (“cell permeability as judged” below) at CRBN is recorded as “cell permeable”. Moreover, the pIC50 at CRBN (setting [3]) is 6.24.
The corresponding values for `COc1ccc(/C=C\c2cc(OC)c(OC)c(OC)c2)cc1OCCOCCOCCOCCNc1cccc2c1C(=O)N(C1CCC(=O)NC1=O)C2=O` (stereo not shown) [Compound 10] are “cell permeable” and 5.83.
As for `O=C(Nc1ccnc(NCc2cccc(Oc3ccccc3)c2)c1)c1cc([N+](=O)[O-])ccc1Cl` [Compound T007-1], the “tubulin degradation in time-course experiment” value in data set [1] is recorded as “efficiently degrade tubulin”. Further, in data set [1] (setting [4]), the “potency in decreasing tubulin levels, T007-1 compared with T138067” value is listed as “significantly more potent”; the “degradation of tubulin (TUBA and TUBB protein levels, Western blot)” value (shortened to “degradation of tubulin”) is “decrease in tubulin levels”. The “microtubule destabilization (soluble S vs polymerized P fraction of tubulin)” value in data set [2] is “decreased levels of both soluble (S) and polymerized (P) fractions of tubulin; also recorded: both the S and the P fraction of tubulin decrease”.
As to `CC[C@H](C)[C@@H]([C@@H](CC(=O)N1CCC[C@H]1[C@H](OC)[C@@H](C)C(=O)N[C@H](C)[C@@H](O)c1ccccc1)OC)N(C)C(=O)[C@@H](NC(=O)[C@H](C(C)C)N(C)CCOCCOCCOCCOCCNc1cccc2c1C(=O)N(C1CCC(=O)NC1=O)C2=O)C(C)C` (stereo partly shown) [Compound 1], the “degradation of tubulin” value in data set [1] (setting [4]) was “no degradation”. Further, the “microtubule destabilization (soluble S vs polymerized P fraction of tubulin)” value in data set [2] was “microtubule destabilization”. In addition, the “cell permeability as judged” value at CRBN is given as “cell-permeable”. In addition, the pIC50 at CRBN (IC50, cellular CRBN engagement, 100 nM dBET6, 5 hours) is 6.47; at CRBN (setting [3]) it was 6.47.
In the case of `COc1ccc(NS(=O)(=O)c2c(F)c(F)c(F)c(F)c2F)cc1F` [Compound T138067], in data set [1], the “tubulin degradation in time-course experiment” value is “efficiently degrade tubulin”. For the same compound, the “degradation of tubulin” value in data set [1] (setting [4]) is given as “decrease in tubulin levels”. Besides, the “microtubule destabilization (soluble S vs polymerized P fraction of tubulin)” value in data set [2] was “both the S and the P fraction of tubulin decrease”.
For the compound `COc1ccc(/C=C\c2cc(OC)c(OC)c(OC)c2)cc1OCCOCCOCCOCCOCCOCCNc1cccc2c1C(=O)N(C1CCC(=O)NC1=O)C2=O` (stereo not shown) [Compound 12], the “cell permeability as judged” value on CRBN is reported as “cell permeable”. Further, the pIC50 on CRBN (setting [3]) was 6.18.
As for `CC[C@H](C)[C@@H]([C@@H](CC(=O)N1CCC[C@H]1[C@H](OC)[C@@H](C)C(=O)N[C@H](C)[C@@H](O)c1ccccc1)OC)N(C)C(=O)[C@@H](NC(=O)[C@H](C(C)C)N(C)CCOCCOCCOCCNc1cccc2c1C(=O)N(C1CCC(=O)NC1=O)C2=O)C(C)C` (stereo partly shown) [Compound 5], the pIC50 at CRBN (setting [3]) is 6.33.
Compound `CC[C@H](C)[C@@H]([C@@H](CC(=O)N1CCC[C@H]1[C@H](OC)[C@@H](C)C(=O)N[C@H](C)[C@@H](O)c1ccccc1)OC)N(C)C(=O)[C@@H](NC(=O)[C@H](C(C)C)N(C)CCOCCOCCOCCOCCOCCNc1cccc2c1C(=O)N(C1CCC(=O)NC1=O)C2=O)C(C)C` (stereo partly shown) [Compound 6] showed a pIC50 at CRBN (setting [3]) of 6.36.
Regarding `CC[C@H](C)[C@@H]([C@@H](CC(=O)N1CCC[C@H]1[C@H](OC)[C@@H](C)C(=O)N[C@H](C)[C@@H](O)c1ccccc1)OC)N(C)C(=O)[C@@H](NC(=O)[C@H](C(C)C)N(C)C(=O)CCCCCCCCCCCNc1cccc2c1C(=O)N(C1CCC(=O)NC1=O)C2=O)C(C)C` (stereo partly shown) [Compound 3] ({X1-12Ado}-[NMeV]V[Dil][Dolaproine]-X2), the “degradation of tubulin” value in data set [1] (setting [4]) is listed as “no degradation”. Besides, the “microtubule destabilization (soluble S vs polymerized P fraction of tubulin)” value in data set [2] was “microtubule destabilization”. At CRBN (100 nM dBET6, 5 hours), the “CRBN engagement / CRBN binding in cells (in words)” value is “very weak CRBN engagement”. Besides, the pIC50 at CRBN (100 nM dBET6, 5 hours, read-out: IC50, cellular CRBN engagement) was around 5.00.
Turning to `COc1ccc(/C=C\c2cc(OC)c(OC)c(OC)c2)cc1NCCOCCOCCOCCOCCNc1cccc2c1C(=O)N(C1CCC(=O)NC1=O)C2=O` (stereo not shown) [Compound 13], the “degradation of tubulin” value in data set [1] (setting [4]) is given as “unsuccessful in degrading tubulin”. For the same compound, the “microtubule destabilization (soluble S vs polymerized P fraction of tubulin)” value in data set [2] is recorded as “no microtubule-destabilizing activity”. The “CRBN engagement / CRBN binding in cells (in words)” value on CRBN (100 nM dBET6, 5 hours) is reported as “efficient binding to CRBN”. Besides, the pIC50 on CRBN (Supplementary Figures S3 and S6, 100 nM dBET6, n=2 biological replicates, read-out: IC50, intracellular CRBN engagement (rescue of 50% of BRD4BRD2-eGFP fluorescence)) was 5.43.
